Results reported in patent EP4768499A1, “MACROCYCLIC PEPTIDE COMPOUND HAVING CELL MEMBRANE PERMEABILITY AND METABOLIC STABILITY, AND LIBRARY CONTAINING SAME” (Chugai Seiyaku Kabushiki Kaisha, priority 2023, dated 2025).
Values belong to the compound of their own block, whether it stands above or below them. Positions of bridges follow the written chain, without caps; N, C: chain ends. Non-standard residues stand in square brackets, D forms with d. Residues, ends and D or L forms follow the SMILES beside them. *: point of attachment. NMeF = CN[C@@H](Cc1ccccc1)C(=O)O; NMeI = CC[C@H](C)[C@H](NC)C(=O)O; NMeL = CN[C@@H](CC(C)C)C(=O)O; NMeV = CN[C@H](C(=O)O)C(C)C; d(β3hA) = C[C@@H](N)CC(=O)O; NMeAbu = CC[C@H](NC)C(=O)O; NMeA = CN[C@@H](C)C(=O)O; Piperidide = C1CCN(*)CC1; dNMeA = CN[C@H](C)C(=O)O; Abu = CC[C@H](N)C(=O)O; Sar = CNCC(=O)O; tBu = CC(C)(C)*

Assays:
[1] = Metabolic stability test: liver microsomal stability assay; format: in vitro ADME, mouse; conditions: mouse liver microsomes 0.5 mg protein/mL, compound 1 µM; for microsomal CLint at 1 µM: male, pH 7.4, presence of NADPH, read-out: Mouse Hepatic Microsome CLh,int NADPH(+); for Mouse Hepatic Microsome CLh,int NADPH(-): absence of NADPH
Experimental: Under the presence and absence of NADPH, a microsome solution prepared to a concentration of 0.5 mg protein/mL using 100 mM phosphate buffer (pH 7.4) with mouse liver microsomes (male, Corning Incorporated, USA) and the compound at a concentration of 1 µM were subjected to a metabolic reaction for 22 minutes, 44 minutes, or 66 minutes. Protein removal processing was performed over time using acetonitrile, and the remaining amount of unchanged compound was analyzed using LCMS to calculate the intrinsic hepatic clearance (CLh, int) (Table 6).

Caco-2 cells = assay: Membrane permeability test using Caco-2 cells with preincubation; format: in vitro ADME; conditions: Caco-2 cells, preincubation 20 to 24 hours; apical FaSSIF/HBSS 1% DMSO pH 6.0, basal HBSS 4% BSA pH 7.4; basal sample at 180 minutes
Experimental: (§1) The permeability coefficient (Caco-2 Papp (cm/sec)) is calculated using a numerical expression 1. [Expression 1] Papp = (1)/(C1 (0) × S) × (dQ)/(dt) [formula] dQ/dt represents the permeation rate of drug (the amount of drug appearing on the Basal side per unit time), S represents the total surface area of cells, and C1(0) represents the concentration of drug added on the Apical side.
(§2) Using a mixed medium of FaSSIF containing 1% DMSO and DMEM as the apical medium, and DMEM as the basal medium, Caco-2 cells and peptide compounds are preincubated for 20 to 24 hours under conditions of 5% CO2, 37°C, and 80 rpm. Afterward, the culture medium on the Apical side and the Basal side are aspirated and washed, the peptide compound was added to a FaSSIF/HBSS buffer solution containing 1% DMSO (1% DMSO) (pH 6.0) at the Apical side, a HBSS buffer solution containing 4% BSA (pH 7.4) was added to the Basal side, and measurement of membrane permeability is started. Each well is shaken under 5% CO2 at 37°C and 80 rpm, and at 180 minutes after the start of shaking, a sample on the Basal side is collected. The amount of peptide compounds in the sample was measured using LCMS, and the membrane permeability coefficient was calculated from the permeation amount (Table 7). When calculating the membrane permeability coefficient (Papp) from the permeation amount, the following expression can be used. Papp = (dQ)/(dt) × (1)/(C1 (0) × S) [formula]
(§3) dQ/dt represents the permeation rate of drug (the amount of drug appearing on the Basal side per unit time), C1(0) represents the concentration of drug added on the Apical side, and S represents the total surface area of cells.

[2] = as above; format: in vitro ADME; conditions: Caco-2; preincubation 20 to 24 hours; Apical FaSSIF/HBSS pH 6.0, Basal HBSS 4% BSA pH 7.4; 180 minutes; read-out: Caco2 Papp
Experimental: as §1, §2, §3

SMILES: CC[C@@H]1NC(=O)[C@H](CC(C)C)N(C)C(=O)[C@H]([C@@H](C)CC)NC(=O)CN(C)C(=O)C[C@@H](C)NC(=O)[C@H](C(C)C)N(C)C(=O)[C@H](COC(C)(C)C)NC(=O)[C@H](CC(C)C)N(C)C(=O)[C@H](C)NC(=O)[C@H](Cc2ccccc2)N(C)C(=O)[C@H](CC(C)C)NC(=O)CN(C)C(=O)[C@H]([C@@H](C)O)NC(=O)[C@H](CC(C)C)N(C)C1=O [pd010] (cyclo(A[NMeL]S(tBu)[NMeV][d(β3hA)][Sar]I[NMeL][Abu][NMeL]T[Sar]L[NMeF]))
microsomal CLint at 1 µM [1]: 59.7 µL/min/mg | Mouse Hepatic Microsome CLh,int NADPH(-) [1]: 27.8 µL/min/mg Protein | Caco2 Papp (10^-6 cm/sec) (Caco-2 cells): 0.72 10^-6 cm/sec | Papp A→B [2]: 0.72 ×10⁻⁶ cm/s

SMILES: CC[C@@H]1NC(=O)[C@H](CC(C)C)N(C)C(=O)[C@H]([C@@H](C)CC)NC(=O)CN(C)C(=O)C[C@@H](C)NC(=O)[C@H](C(C)C)N(C)C(=O)[C@H](COC(C)(C)C)NC(=O)[C@H](CC(C)C)N(C)C(=O)[C@H](Cc2ccccc2)N(C)C(=O)[C@H](C)NC(=O)[C@H](C(C)C)NC(=O)CN(C)C(=O)[C@H]([C@@H](C)O)NC(=O)[C@H](CC(C)C)N(C)C1=O [pd011] (cyclo(A[NMeF][NMeL]S(tBu)[NMeV][d(β3hA)][Sar]I[NMeL][Abu][NMeL]T[Sar]V))
microsomal CLint at 1 µM [1]: 27.3 µL/min/mg | Mouse Hepatic Microsome CLh,int NADPH(-) [1]: 22.9 µL/min/mg Protein | Caco2 Papp (10^-6 cm/sec) (Caco-2 cells): 0.11 10^-6 cm/sec | Papp A→B [2]: 0.11 ×10⁻⁶ cm/s

SMILES: CC[C@@H]1NC(=O)[C@H](Cc2ccccc2)N(C)C(=O)[C@H](C(C)C)NC(=O)[C@H](COC(C)(C)C)NC(=O)[C@H](C)N(C)C(=O)CN(C)C(=O)[C@H](CC(C)C)NC(=O)[C@@H]2CCCN2C(=O)[C@H](C(C)C)N(C)C(=O)[C@H](C)NC(=O)[C@H](CC)N(C)C(=O)[C@@H](C(C)C)NC(=O)C[C@@H](C(=O)N2CCCCC2)NC(=O)[C@H](C(C)C)N(C)C1=O [pd013] ([dV][NMeAbu]A[NMeV]PL[Sar][NMeA]S(tBu)V[NMeF][Abu][NMeV]D-Piperidide; lactam N-14)
microsomal CLint at 1 µM [1]: 12.1 µL/min/mg | Mouse Hepatic Microsome CLh,int NADPH(-) [1]: 6.1 µL/min/mg Protein | Caco2 Papp (10^-6 cm/sec) (Caco-2 cells): 0.04 10^-6 cm/sec | Papp A→B [2]: 0.04 ×10⁻⁶ cm/s

Further lines, results first:

microsomal CLint at 1 µM [1]: 38.9 µL/min/mg | Mouse Hepatic Microsome CLh,int NADPH(-) [1]: 42.4 µL/min/mg Protein | Caco2 Papp (10^-6 cm/sec) (Caco-2 cells): 0.13 10^-6 cm/sec | Papp A→B [2]: 0.13 ×10⁻⁶ cm/s
SMILES: CC[C@H](C)[C@@H]1NC(=O)[C@H](CC(C)C)N(C)C(=O)[C@H](CC(C)C)NC(=O)[C@H](C)N(C)C(=O)C[C@@H](C)NC(=O)CN(C)C(=O)[C@H](CC(C)C)N(C)C(=O)[C@H]([C@@H](C)O)NC(=O)[C@H](C(C)C)NC(=O)[C@H]([C@@H](C)CC)N(C)C(=O)[C@H](COC(C)(C)C)NC(=O)[C@H](CC(C)C)N(C)C(=O)[C@H](C)NC(=O)[C@H](Cc2ccccc2)N(C)C1=O [pd009] (cyclo(A[NMeL]S(tBu)[NMeI]VT[NMeL][Sar][d(β3hA)][NMeA]L[NMeL]I[NMeF]))

microsomal CLint at 1 µM [1]: 41.3 µL/min/mg | Mouse Hepatic Microsome CLh,int NADPH(-) [1]: 20.1 µL/min/mg Protein | Caco2 Papp (10^-6 cm/sec) (Caco-2 cells): 4.30 10^-6 cm/sec | Papp A→B [2]: 4.3 ×10⁻⁶ cm/s
SMILES: CC[C@@H]1NC(=O)[C@H](Cc2ccccc2)N(C)C(=O)[C@H](COC(C)(C)C)NC(=O)[C@H](CC(C)C)N(C)C(=O)[C@H](C)N(C)C(=O)[C@@H]2CCCN2C(=O)[C@H]([C@@H](C)O)NC(=O)[C@H](CC(C)C)N(C)C(=O)[C@H]([C@@H](C)CC)NC(=O)[C@H](Cc2ccccc2)N(C)C(=O)[C@H](C(C)C)NC(=O)[C@@H](C)N(C)C(=O)C[C@@H](C)NC(=O)[C@H](C(C)C)N(C)C1=O [pd012] (cyclo([Abu][NMeV][d(β3hA)][dNMeA]V[NMeF]I[NMeL]TP[NMeA][NMeL]S(tBu)[NMeF]))

microsomal CLint at 1 µM [1]: 31.1 µL/min/mg | Mouse Hepatic Microsome CLh,int NADPH(-) [1]: 33.0 µL/min/mg Protein | Caco2 Papp (10^-6 cm/sec) (Caco-2 cells): <0.11 10^-6 cm/sec | Papp A→B [2]: < 0.11 ×10⁻⁶ cm/s
SMILES: CC(C)C[C@@H]1NC(=O)[C@@H]2CCCN2C(=O)[C@H](C(C)C)N(C)C(=O)[C@H](C)NC(=O)[C@H](CC(C)C)N(C)C(=O)[C@@H](C(C)C)NC(=O)C[C@@H](C(=O)N2CCCCC2)NC(=O)[C@H](C(C)C)N(C)C(=O)[C@H](C)NC(=O)[C@H](CC(C)C)N(C)C(=O)[C@H](C(C)C)NC(=O)[C@H](COC(C)(C)C)NC(=O)[C@H](CC(C)C)N(C)C(=O)[C@H](Cc2ccccc2)N(C)C1=O [pd014] ([dV][NMeL]A[NMeV]PL[NMeF][NMeL]S(tBu)V[NMeL]A[NMeV]D-Piperidide; lactam N-14)
